{"source": "paper PMC6886798", "about": "“Expression of myeloid Src-family kinases is associated with poor prognosis in AML and influences Flt3-ITD kinase inhibitor acquired resistance” (PLoS ONE, 2019)", "key": {"[1]": {"system": "TF-1/Flt3-ITD D835Y + Hck cells", "test": "CellTiter-Blue cell viability", "assay_type": "cell-based, human", "conditions": "Fig 3, SFK: Hck, 72 hours, read-out: IC50, nM (growth inhibition)", "experimental": "(§1) Full-length cDNA clones of each kinase were subcloned into the retroviral expression vectors pMSCV-neo or pMSCV-puro (Clontech). High-titer retroviral stocks were produced in 293T cells co-transfected with each pMSCV construct and an amphotropic packaging vector. TF-1 cells (10^6) were resuspended in 5.0 mL of undiluted viral supernatant and centrifuged at 1,000 × g for 4 h at 18 °C in the presence of 4 μg/mL Polybrene (Sigma-Aldrich) to enhance viral transduction. Forty-eight hours after infection, the cells began a two-week selection period with 400 μg/ml G-418 (neo vectors) or 3 μg/mL puromycin (puro vectors). Following selection, cells were maintained with 200 μg/ml G418 or 1 μg/mL puromycin. For double transduction experiments, TF-1 cells were first infected with the pMSCV-neo-Flt3-ITD virus, selected with G418, followed by the pMSCV-puro virus carrying Hck or Fgr and puromycin selection. All TF-1 cell populations that expressed Flt3-ITD (including inhibitor-resistant mutants) proliferated in a GM-CSF-independent manner, and were therefore subcultured in the absence of GM-CSF.\n(§2) Cells were seeded at 10^5 per mL in the presence or absence of inhibitors with DMSO as carrier solvent (0.1% final). Cell viability was assessed using the CellTiter-Blue reagent according to the manufacturer’s instructions (Promega). Fluorescence intensity, which correlates directly with viable cell number, was measured using a SpectraMax M5 microplate reader. Each experiment included three technical replicates per condition, and each experiment was repeated at least three times."}, "[2]": {"system": "TF-1/FLT3-ITD + Fgr-T338L cells", "test": "CellTiter-Blue cell viability", "assay_type": "cell-based, human", "experimental": "as §1, §2"}, "[3]": {"system": "TF-1/Flt3-ITD N676S + Fgr cells", "test": "CellTiter-Blue cell viability", "assay_type": "cell-based, human", "conditions": "S9 Fig, 48 h", "experimental": "as §1, §2"}, "[4]": {"system": "TF-1/Flt3-ITD cells", "test": "CellTiter-Blue cell viability", "assay_type": "cell-based, human", "conditions": "72 hours", "experimental": "as §1, §2"}, "[5]": {"system": "TF-1/Flt3-ITD N676S + Hck cells", "test": "CellTiter-Blue cell viability", "assay_type": "cell-based, human", "conditions": "S9 Fig, 48 h", "experimental": "as §1, §2"}, "[6]": {"system": "TF-1/Flt3-ITD + Fgr cells", "test": "CellTiter-Blue cell viability", "assay_type": "cell-based, human", "conditions": "Fig 3; Flt3-ITD: WT; SFK: Fgr; 72 hours; read-out: IC50, nM (growth inhibition)", "experimental": "as §1, §2"}, "[7]": {"system": "TF-1/FLT3-ITD + Fgr-T338M cells", "test": "CellTiter-Blue cell viability", "assay_type": "cell-based, human", "experimental": "as §1, §2"}, "[8]": {"system": "TF-1/Flt3-ITD N676S cells", "test": "CellTiter-Blue cell viability", "assay_type": "cell-based, human", "experimental": "as §1, §2"}, "[9]": {"system": "TF-1/Flt3-ITD + Hck cells", "test": "CellTiter-Blue cell viability", "assay_type": "cell-based, human", "conditions": "Fig 3; Flt3-ITD: WT; SFK: Hck; 72 hours; read-out: IC50, nM (growth inhibition)", "experimental": "as §1, §2"}, "[10]": {"molecular_target": "468 kinases", "test": "KINOMEscan scanMAX profile, overall selectivity", "assay_type": "binding, human", "conditions": "1 μM; 468 kinase targets"}, "[11]": {"molecular_target": "T1, Hck T338M (Homo sapiens, UniProt P08631, T333M)", "T1 construct": "Recombinant near-full-length kinases, consisting of the SH2, SH3 and kinase domains plus the negative regulatory tail; made in house; host or cells: E. coli BL21Star (DE3), co-expressed with Csk and PTP1B", "T1 sequence (P08631 78-526 T333M limits assumed)": "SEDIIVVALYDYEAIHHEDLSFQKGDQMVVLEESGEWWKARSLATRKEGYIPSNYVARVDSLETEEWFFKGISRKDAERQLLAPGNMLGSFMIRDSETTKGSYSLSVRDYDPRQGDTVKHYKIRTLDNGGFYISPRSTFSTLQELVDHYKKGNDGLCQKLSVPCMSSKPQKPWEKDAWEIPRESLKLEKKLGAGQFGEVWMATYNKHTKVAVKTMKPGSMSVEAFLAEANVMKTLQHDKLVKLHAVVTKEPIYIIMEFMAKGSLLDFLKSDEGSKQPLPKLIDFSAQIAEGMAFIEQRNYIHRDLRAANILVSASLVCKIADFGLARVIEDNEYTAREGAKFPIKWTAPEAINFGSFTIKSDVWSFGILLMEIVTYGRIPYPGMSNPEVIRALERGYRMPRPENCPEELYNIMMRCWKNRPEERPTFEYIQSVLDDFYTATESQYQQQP", "test": "Z'-LYTE in vitro kinase assay", "assay_type": "biochemical"}, "[12]": {"molecular_target": "T2, Fgr T338L (Homo sapiens, UniProt P09769, T334L)", "T2 construct": "Recombinant near-full-length kinases, consisting of the SH2, SH3 and kinase domains plus the negative regulatory tail; made in house; host or cells: E. coli BL21Star (DE3), co-expressed with Csk and PTP1B", "test": "Z'-LYTE in vitro kinase assay", "assay_type": "biochemical", "conditions": "read-out: A-419259 IC50, Fig 5B, ATP at Km, mean ± SE, three independent determinations", "quoted_text": "(§4) Assays were performed in quadruplicate in 384-well low volume, non-binding, black polystyrene microplates (Corning) according to the manufacturer’s instructions. Briefly, this assay measures phosphorylation of the Tyr2 peptide substrate which is tagged with coumarin and fluorescein on its N- and C-termini, respectively, to form a FRET pair. After the kinase reaction, a development step involves site-specific proteolytic cleavage of the unphosphorylated but not the phosphorylated peptide. […] Kinase reactions were run in 50 mM HEPES, pH 7.5, 10 mM MgCl2, 1 mM EGTA, and 0.01% BRIJ-35 (buffer supplied by the manufacturer). […] Following incubation for 1 h at ambient temperature, reactions were quenched by addition of the development protease, and coumarin and fluorescein fluorescence were measured 1 h later on a Molecular Devices SpectraMax M5 plate reader. […] For experiments with inhibitors, compounds were preincubated with kinase for 30 min prior to initiation of the reaction by the addition of ATP."}, "[13]": {"molecular_target": "T3, VEGFR2 (Homo sapiens, UniProt P35968)", "T3 construct": "DNA tag (qPCR barcode); purchased Eurofins/DiscoverX KINOMEscan scanMAX", "T3 sequence (P35968 20-1356)": "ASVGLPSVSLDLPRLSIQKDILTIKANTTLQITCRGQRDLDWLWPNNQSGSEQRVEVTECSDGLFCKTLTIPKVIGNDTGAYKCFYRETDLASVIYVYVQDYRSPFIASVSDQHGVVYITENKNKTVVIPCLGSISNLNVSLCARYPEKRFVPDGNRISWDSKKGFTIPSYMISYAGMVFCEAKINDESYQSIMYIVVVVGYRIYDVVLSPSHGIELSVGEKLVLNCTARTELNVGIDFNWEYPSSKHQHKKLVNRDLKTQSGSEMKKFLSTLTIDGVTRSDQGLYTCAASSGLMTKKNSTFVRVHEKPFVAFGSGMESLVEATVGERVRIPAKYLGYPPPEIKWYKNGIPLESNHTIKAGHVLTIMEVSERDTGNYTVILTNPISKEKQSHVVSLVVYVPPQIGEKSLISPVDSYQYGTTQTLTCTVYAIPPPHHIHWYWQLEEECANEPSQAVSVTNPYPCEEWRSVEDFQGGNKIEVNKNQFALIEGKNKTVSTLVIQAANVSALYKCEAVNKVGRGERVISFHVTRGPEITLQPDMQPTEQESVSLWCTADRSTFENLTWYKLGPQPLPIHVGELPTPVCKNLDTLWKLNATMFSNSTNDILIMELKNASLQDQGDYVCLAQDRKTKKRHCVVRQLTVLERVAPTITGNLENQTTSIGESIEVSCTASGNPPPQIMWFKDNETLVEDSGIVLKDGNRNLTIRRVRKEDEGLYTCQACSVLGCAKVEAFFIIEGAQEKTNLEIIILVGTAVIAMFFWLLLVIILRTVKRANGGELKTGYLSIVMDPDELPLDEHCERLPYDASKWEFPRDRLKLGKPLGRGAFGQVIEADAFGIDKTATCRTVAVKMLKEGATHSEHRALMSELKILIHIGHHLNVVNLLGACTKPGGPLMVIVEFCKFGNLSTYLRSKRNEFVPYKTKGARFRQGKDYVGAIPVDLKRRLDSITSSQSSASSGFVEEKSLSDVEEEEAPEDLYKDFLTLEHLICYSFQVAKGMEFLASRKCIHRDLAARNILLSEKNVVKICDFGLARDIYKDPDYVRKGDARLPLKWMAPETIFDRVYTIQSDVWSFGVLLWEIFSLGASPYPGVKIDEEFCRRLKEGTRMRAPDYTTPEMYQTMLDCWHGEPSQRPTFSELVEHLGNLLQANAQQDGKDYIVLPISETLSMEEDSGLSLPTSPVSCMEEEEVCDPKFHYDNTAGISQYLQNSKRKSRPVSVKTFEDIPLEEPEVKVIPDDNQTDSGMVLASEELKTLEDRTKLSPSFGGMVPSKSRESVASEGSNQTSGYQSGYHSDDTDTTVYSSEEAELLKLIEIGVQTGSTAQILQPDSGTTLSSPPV", "test": "KINOMEscan", "assay_type": "binding", "conditions": "1.0 µM"}, "[14]": {"molecular_target": "T4, Hck T338L (Homo sapiens, UniProt P08631, T333L)", "T4 construct": "Recombinant near-full-length kinases, consisting of the SH2, SH3 and kinase domains plus the negative regulatory tail; made in house; host or cells: E. coli BL21Star (DE3), co-expressed with Csk and PTP1B", "T4 sequence (P08631 78-526 T333L limits assumed)": "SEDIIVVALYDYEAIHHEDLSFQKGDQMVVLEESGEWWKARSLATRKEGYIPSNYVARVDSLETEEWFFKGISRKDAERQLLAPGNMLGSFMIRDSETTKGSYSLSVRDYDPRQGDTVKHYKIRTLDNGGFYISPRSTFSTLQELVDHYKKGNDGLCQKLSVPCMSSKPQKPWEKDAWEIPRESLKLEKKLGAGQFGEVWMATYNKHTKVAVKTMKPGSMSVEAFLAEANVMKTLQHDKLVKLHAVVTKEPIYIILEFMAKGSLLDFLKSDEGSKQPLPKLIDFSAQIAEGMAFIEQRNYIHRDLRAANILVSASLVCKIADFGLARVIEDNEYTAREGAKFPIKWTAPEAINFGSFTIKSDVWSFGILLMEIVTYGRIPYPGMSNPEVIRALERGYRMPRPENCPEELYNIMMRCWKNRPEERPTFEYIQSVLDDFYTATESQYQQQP", "test": "Z'-LYTE in vitro kinase assay", "assay_type": "biochemical"}, "[15]": {"molecular_target": "T5, TXK (Homo sapiens, UniProt P42681)", "T5 construct": "DNA tag (qPCR barcode); purchased Eurofins/DiscoverX KINOMEscan scanMAX", "test": "KINOMEscan", "assay_type": "binding", "conditions": "1.0 µM", "experimental": "(§3) Kinase retention to the immobilized ligand is then measured using quantitative real-time PCR for each kinase-specific DNA barcode."}, "[16]": {"molecular_target": "T6, RSK2(Kin.Dom.1-N-terminal) (Homo sapiens, UniProt P51812)", "T6 construct": "RSK2(Kin.Dom.1-N-terminal); purchased Eurofins/DiscoverX KINOMEscan scanMAX", "T6 sequence (P51812 68-397 limits assumed)": "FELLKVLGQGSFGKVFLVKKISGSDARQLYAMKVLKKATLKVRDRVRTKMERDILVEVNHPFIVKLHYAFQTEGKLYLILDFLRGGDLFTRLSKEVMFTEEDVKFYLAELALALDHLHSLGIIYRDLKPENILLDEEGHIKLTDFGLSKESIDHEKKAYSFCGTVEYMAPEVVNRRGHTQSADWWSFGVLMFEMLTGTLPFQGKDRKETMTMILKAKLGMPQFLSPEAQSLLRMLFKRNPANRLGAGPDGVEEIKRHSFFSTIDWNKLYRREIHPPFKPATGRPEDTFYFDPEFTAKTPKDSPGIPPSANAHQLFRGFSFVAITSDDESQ", "test": "KINOMEscan", "assay_type": "binding", "conditions": "1.0 µM", "experimental": "as §3"}, "[17]": {"molecular_target": "T7, BRSK1 (Homo sapiens, UniProt Q8TDC3)", "T7 construct": "purchased Eurofins/DiscoverX KINOMEscan scanMAX", "test": "KINOMEscan", "assay_type": "binding", "conditions": "1.0 µM", "experimental": "as §3"}, "[18]": {"molecular_target": "T8, MEK2 (Homo sapiens, UniProt P36507)", "T8 construct": "purchased Eurofins/DiscoverX KINOMEscan scanMAX", "test": "KINOMEscan", "assay_type": "binding", "conditions": "1.0 µM", "experimental": "as §3"}, "[19]": {"molecular_target": "T9, SNRK (Homo sapiens, UniProt Q9NRH2)", "T9 construct": "purchased Eurofins/DiscoverX KINOMEscan scanMAX", "test": "KINOMEscan", "assay_type": "binding", "conditions": "1.0 µM", "experimental": "as §3"}, "[20]": {"molecular_target": "T10, CAMK2D (Homo sapiens, UniProt Q13557)", "T10 construct": "purchased Eurofins/DiscoverX KINOMEscan scanMAX", "test": "KINOMEscan", "assay_type": "binding", "conditions": "1.0 µM", "experimental": "as §3"}, "[21]": {"molecular_target": "T11, Lyn T338M (Homo sapiens, UniProt P07948, T319M)", "T11 construct": "Recombinant near-full-length kinases, consisting of the SH2, SH3 and kinase domains plus the negative regulatory tail; made in house; host or cells: E. coli BL21Star (DE3), co-expressed with Csk and PTP1B", "T11 sequence (P07948 63-512 T319M limits assumed)": "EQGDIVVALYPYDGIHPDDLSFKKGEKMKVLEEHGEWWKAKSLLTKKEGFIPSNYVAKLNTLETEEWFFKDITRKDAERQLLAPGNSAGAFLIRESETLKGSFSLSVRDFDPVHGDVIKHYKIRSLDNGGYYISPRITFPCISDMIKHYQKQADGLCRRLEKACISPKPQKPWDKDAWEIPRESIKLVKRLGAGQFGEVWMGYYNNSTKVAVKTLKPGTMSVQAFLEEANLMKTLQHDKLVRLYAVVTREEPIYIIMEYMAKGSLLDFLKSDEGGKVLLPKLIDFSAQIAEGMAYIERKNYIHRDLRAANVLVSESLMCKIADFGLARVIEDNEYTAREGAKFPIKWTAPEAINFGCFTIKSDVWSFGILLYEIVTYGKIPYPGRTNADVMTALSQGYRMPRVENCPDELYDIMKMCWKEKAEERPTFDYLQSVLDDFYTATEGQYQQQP", "test": "Z'-LYTE in vitro kinase assay", "assay_type": "biochemical", "conditions": "read-out: A-419259 IC50, Fig 5B, ATP at Km, mean ± SE, three independent determinations"}, "[22]": {"molecular_target": "T12, PRP4 (Homo sapiens, UniProt Q13523)", "T12 construct": "purchased Eurofins/DiscoverX KINOMEscan scanMAX", "test": "KINOMEscan", "assay_type": "binding", "conditions": "1.0 µM"}, "[23]": {"system": "chemotherapy-resistant AML patient xenografts", "design": "method as in PMID 23596204", "conditions": "mice; cited from earlier work"}, "[24]": {"molecular_target": "T13, Fgr T338M (Homo sapiens, UniProt P09769, T334M)", "T13 construct": "Recombinant near-full-length kinases, consisting of the SH2, SH3 and kinase domains plus the negative regulatory tail; made in house; host or cells: E. coli BL21Star (DE3), co-expressed with Csk and PTP1B", "test": "Z'-LYTE in vitro kinase assay", "assay_type": "biochemical", "quoted_text": "as §4"}, "[25]": {"molecular_target": "T14, LCK (Homo sapiens, UniProt P06239)", "T14 construct": "purchased Eurofins/DiscoverX KINOMEscan scanMAX", "test": "KINOMEscan", "assay_type": "binding", "conditions": "1.0 µM"}}, "note": "Read-outs that look alike come from different tables or passages of the source.", "data": [{"smiles": "CN1CCN(C2CCC(n3cc(-c4ccc(Oc5ccccc5)cc4)c4c(N)ncnc43)CC2)CC1", "note": "(stereo not shown) [A-419259]", "values": [{"measurement": "IC50", "setting": "[1]", "result": "> 100", "unit": "nM"}, {"measurement": "resistance to the inhibitor in cells", "setting": "[2]; Fgr T338L as printed", "result": "about 3 fold"}, {"measurement": "IC50", "setting": "[2]; Fig 6B, TF-1/FLT3-ITD + Fgr-T338L, 72 hours", "result": "> 1000", "unit": "nM"}, {"measurement": "IC50", "setting": "[3]", "result": 173, "unit": "nM"}, {"measurement": "IC50", "setting": "[4]; Fig 3, Flt3-ITD: WT, SFK: none, read-out: IC50, nM (growth inhibition)", "result": 18.2, "unit": "nM"}, {"measurement": "IC50", "setting": "[4]; Fig 9A, control TF-1/Flt3-ITD cells, read-out: IC50 (growth arrest)", "result": 26, "unit": "nM"}, {"measurement": "IC50", "setting": "[5]", "result": 129, "unit": "nM"}, {"measurement": "IC50", "setting": "[6]", "result": 22.6, "unit": "nM"}, {"measurement": "resistance to the inhibitor in cells", "setting": "[7]", "result": "about 3 fold"}, {"measurement": "IC50", "setting": "[8]; Fig 9A, 72 hours, read-out: IC50 (growth arrest)", "result": 176, "unit": "nM"}, {"measurement": "IC50", "setting": "[8]; S9 Fig, N676S control, 48 h, read-out: IC50 (cell viability)", "result": 89.1, "unit": "nM"}, {"measurement": "IC50", "setting": "[9]", "result": 15.4, "unit": "nM"}, {"measurement": "kinase interactions", "setting": "[10]", "result": 19}, {"measurement": "reduction of kinase sensitivity to A-419259", "setting": "[11]; Hck gatekeeper threonine to methionine, vs wild-type", "result": 2, "unit": "fold"}, {"measurement": "IC50", "setting": "[11]; read-out: A-419259 IC50, Fig 5B, Hck T338M, ATP at Km, mean ± SE, three independent determinations", "result": "94.9 ± 1.1", "unit": "nM"}, {"measurement": "IC50", "setting": "[12]", "result": "218.4 ± 1.1", "unit": "nM"}, {"measurement": "% Control", "setting": "[13]", "result": 24, "unit": "%"}, {"measurement": "effect of substitution on kinase sensitivity to A-419259", "setting": "[14]; Hck gatekeeper threonine to leucine, vs wild-type", "result": "without an effect"}, {"measurement": "IC50", "setting": "[14]; read-out: A-419259 IC50, Fig 5B, Hck T338L, ATP at Km, mean ± SE, three independent determinations", "result": "41 ± 1", "unit": "nM"}, {"measurement": "% Control", "setting": "[15]", "result": 13, "unit": "%"}, {"measurement": "% Control", "setting": "[16]", "result": 16, "unit": "%"}, {"measurement": "% Control", "setting": "[17]", "result": 14, "unit": "%"}, {"measurement": "% Control", "setting": "[18]", "result": 0.2, "unit": "%"}, {"measurement": "% Control", "setting": "[19]", "result": 94, "unit": "%"}, {"measurement": "% Control", "setting": "[20]", "result": 100, "unit": "%"}, {"measurement": "IC50", "setting": "[21]", "result": "127.8 ± 1", "unit": "nM"}, {"measurement": "% Control", "setting": "[22]", "result": 98, "unit": "%"}, {"measurement": "effect on chemotherapy-resistant AML patient xenografts", "setting": "[23]", "result": "completely eliminates"}, {"measurement": "resistance to A-419259", "setting": "[24]; Fgr gatekeeper methionine substitution, vs wild-type", "result": 2.5, "unit": "fold"}, {"measurement": "IC50", "setting": "[24]; read-out: A-419259 IC50, Fig 5B, Fgr T338M, ATP at Km, mean ± SE, three independent determinations", "result": "160.6 ± 1.1", "unit": "nM"}, {"measurement": "% Control", "setting": "[25]", "result": 2.3, "unit": "%"}]}]}
